Assay results: ChEMBL document CHEMBL1147375, “Three New Bromotyrosine-Derived Metabolites of the Sponge Psammaplysilla purpurea” (J Nat Prod, 1993)
Converted amounts (≈) assume the structure as drawn. The source made the active and inactive calls. No cut-off for these calls is given here.

Tests used:
HT-29 = experiment: Cytotoxicity against human HT-29 cells; type: functional, cell-based
Staphylococcus aureus = experiment: Antibacterial activity against Staphylococcus aureus at 100 ug/disk; type: functional; conditions: read-out: IZ
A549 = experiment: Cytotoxicity against human A549 cells; type: functional, cell-based
P388 = experiment: Cytotoxicity against mouse P388 cells; type: functional, cell-based
KB = experiment: Cytotoxicity against human KB cells; type: functional, cell-based
Escherichia coli = experiment: Antibacterial activity against Escherichia coli at 100 ug/disk; type: functional, organism-based
[1] = system: Human immunodeficiency virus 1; experiment: Antiviral activity against HIV1 Haitian RF at 1 ug/mL; type: functional, organism-based

| SMILES | IC50 (HT-29) | zone of inhibition at 100 µg/disc (Staphylococcus aureus) | IC50 (A549) | IC50 (P388) | IC50 (KB) | Activity (Escherichia coli) | Activity [1] |
| --- | --- | --- | --- | --- | --- | --- | --- |
| Br.COc1c(Br)cc(C/C(=N\O)C(=O)NCCc2cc(Br)c(OCCCN)c(Br)c2)cc1Br [APLYSAMINE 4] | 2.5 µg/mL | 10 mm | 2.5 µg/mL | 2.5 µg/mL | 5 µg/mL | inactive | inactive |
| COc1ccc(C/C(=N\O)C(=O)NCCc2cc(Br)c(OCCCN)c(Br)c2)cc1Br [APLYSAMINE 3] | 2 µg/mL (≈ 3.21 µM) | 10 mm | 2 µg/mL (≈ 3.21 µM) | 1 µg/mL (≈ 1.61 µM) | 5 µg/mL (≈ 8.04 µM) | inactive | inactive |
| COc1ccc(C/C(=N\O)C(=O)NCCc2cc(Br)c(OCCCNC(=O)CCCCCCCCCCCC(C)C)c(Br)c2)cc1Br [APLYSAMINE 5] | 2.5 µg/mL (≈ 2.95 µM) | – | 2.5 µg/mL (≈ 2.95 µM) | 10 µg/mL (≈ 11.8 µM) | 2 µg/mL (≈ 2.36 µM) | – | inactive |
